Data: patent US4314061A, “Certain 3,6-bis-(heteroaminoalkoxy) acridines” (priority 1980, dated 1982)

Assays:
Columbia SK virus = test: Protection of mice against lethal Columbia SK virus infection by oral pre-treatment; format: in vivo, random-bred Swiss male mice; details: 400 mg/kg oral
Protocol: At 24, 48, 72 and 96 hours after drug treatment, separate groups of mice were injected SC with an LD95 dose of the interferon sensitive virus, Columbia SK. […] Typically, protection from lethal infection with Columbia SK virus is associated with induction of interferon.

normal mouse bone marrow = test: Effect on normal mouse bone marrow; format: in vivo, C57 BL6 male mice; details: 24 hours after treatment; test compound oral, Cytoxan intraperitoneal
Protocol: The effect of drugs on normal mouse bone marrow is evaluated by determining total cell counts of femurs and by the ability of surviving cells to form colonies in semi-solid medium. The test compound is administered orally and the reference drug Cytoxan is administered intraperitoneally to C57 BL6 male mice. One femur from each of three mice per dose level is assayed 24 hours after treatment. Counts of nucleated cells are performed on pooled marrow suspensions and the clonogenic assay is performed by plating 50,000 cells in one ml. of culture medium in each of four culture dishes. The medium to support bone marrow progenitor cell growth is McCoy's medium supplemented with 0.9% methocel, 1.8% human serum albumin, 10% bovine fetal serum and 10% "conditioned" L-cell medium. Cultures are incubated at 37° C. in a humidified atmosphere and colonies are counted at seven days.

circulating interferon = test: Induction of circulating interferon in mice; format: in vivo, BDF1 mice; details: 300 mg/kg single oral
Lewis lung carcinoma = test: Antitumor activity against intravenously inoculated Lewis lung carcinoma in mice; format: in vivo, BDF1 mice; details: Day +19
Protocol: Lewis lung carcinoma cells, 5×10^5 viable cells, were injected intravenously into BDF1 mice. The drug was prepared in normal saline and administered once daily, by the oral route, at doses ranging from 38 mg./kg to 400 mg/kg on days 1, 7, and 13 following tumor cell inoculation. A control group of mice received a saline placebo, instead of drug, by the oral route on the same days of treatment. All mice were sacrificed on day 19 following tumor inoculation, their lungs removed and individually weighed. Additionally, a group of 10 normal, non-tumor bearing BDF1 mice, of the same sex, age, and body weight as the tumor bearing mice, were sacrificed and their lungs removed and weighed to determine the average normal lung weight. The average normal lung weight was subtracted from the weight of lungs from the tumored mice to determine the weight of tumorous tissue present in the lungs of the tumor bearing mice. A postive drug effect is indicated by a ≥58% reduction in the average lung tumor weight of the drug treated mice, relative to the average lung tumor weight of the saline placebo treated mice.
^1 BDF1 male mice inoculated intravenously with 5 ×
10^5 Lewis lung tumor cells on day zero:
3,6bis(2-diethylaminoethoxy)acridine trihydrochloride administered on day
1,7, and 13 after tumor inoculation.
^2 Average lung tumor weight = average weight of lungs from tumor
bearing mice, minus average weight of lungs from normal, nontumor bearing
*Denotes significant (≥58%) inhibition of lung tumor weight.

[1] = test system: natural killer lymphocytes (NK cells); test: Stimulation of NK-cell activity in normal mice

Which results are given for CCN(CC)CCOc1ccc2cc3ccc(OCCN(CC)CC)cc3nc2c1.Cl.Cl.Cl?
Survivors/Total (14 Days) (Columbia SK virus; -24 hr relative to virus challenge, * p <.01): 19/20; Survivors/Total (14 Days) (Columbia SK virus; -48 hr relative to virus challenge, * p <.01): 10/20; Survivors/Total (14 Days) (Columbia SK virus; -72 hr relative to virus challenge): 1/20; Survivors/Total (14 Days) (Columbia SK virus; -96 hr relative to virus challenge): 1/20; Effect on total nucleated cell count of femur marrow, in words (normal mouse bone marrow): minimal effects on the total nucleated cell count; Induction of circulating interferon, in words (circulating interferon): induced the production of high levels of circulating interferon; Time of peak titers of interferon after drug administration (circulating interferon): 16 to 24 h; Serum interferon titer (circulating interferon; 0 hours): 10 units/ml; Serum interferon titer (circulating interferon; 8 hours): 100 units/ml; Serum interferon titer (circulating interferon; 16 hours): 3200 units/ml; Serum interferon titer (circulating interferon; 24 hours): 3200 units/ml; Serum interferon titer (circulating interferon; 32 hours): 2100 units/ml; Serum interferon titer (circulating interferon; 48 hours): 50 units/ml; Interferon titer 72 hours after drug treatment, in words (circulating interferon; 72 hours): at normal levels; Serum interferon titer (circulating interferon; 72 hours): 10 units/ml; Average % tumor inhibition (Lewis lung carcinoma; 38 mg/kg oral): 33%; Average lung tumor weight (Lewis lung carcinoma; 38 mg/kg oral): 99 mg; No. Survivors/No. Treated (Lewis lung carcinoma; 38 mg/kg oral): 10/12; Average % tumor inhibition (Lewis lung carcinoma; 75 mg/kg oral): 5%; Average lung tumor weight (Lewis lung carcinoma; 75 mg/kg oral): 139 mg; No. Survivors/No. Treated (Lewis lung carcinoma; 75 mg/kg oral): 12/12; Average % tumor inhibition (Lewis lung carcinoma; 150 mg/kg oral): 51%; Average lung tumor weight (Lewis lung carcinoma; 150 mg/kg oral): 72 mg; No. Survivors/No. Treated (Lewis lung carcinoma; 150 mg/kg oral): 12/12; Average lung tumor weight (Lewis lung carcinoma; 300 mg/kg oral): 40 mg; No. Survivors/No. Treated (Lewis lung carcinoma; 300 mg/kg oral): 12/12; Average % tumor inhibition (Lewis lung carcinoma; 300 mg/kg oral, * significant (≥58%)): 73%; Average lung tumor weight (Lewis lung carcinoma; 400 mg/kg oral): 12 mg; No. Survivors/No. Treated (Lewis lung carcinoma; 400 mg/kg oral): 10/12; Average % tumor inhibition (Lewis lung carcinoma; 400 mg/kg oral, * significant (≥58%)): 92%; % Cytotoxicity ([1]; Test 1 (CD1 mice), 75 mg/kg oral, ** p <.01): 29.5%; % Cytotoxicity ([1]; Test 1 (CD1 mice), 150 mg/kg oral, ** p <.01): 37.7%; % Cytotoxicity ([1]; Test 1 (CD1 mice), 300 mg/kg oral, * p <.05): 25.8%; % Cytotoxicity ([1]; Test 2 (BDF1 hybrids), 75 mg/kg oral, ** p <.01): 44.4%; % Cytotoxicity ([1]; Test 2 (BDF1 hybrids), 150 mg/kg oral, ** p <.01): 40.9%; % Cytotoxicity ([1]; Test 2 (BDF1 hybrids), 300 mg/kg oral, * p <.05): 38.2%; Stimulation of NK cell activity, in words ([1]; mouse, in vivo): active in this test
